“And” between values parts separate entries of the source, which are not always exact repeats. Identical values can stand only once. Like-named read-outs stand apart in the source and are kept apart here.
How the values were obtained:
human (h)AR = target: T1, human (h)AR (Homo sapiens, UniProt P10275); experiment: AR-EcoScreen hAR transcriptional activation assay, antagonist setup (500 pM DHT); format: cell-based
T1 sequence (P10275 1-920): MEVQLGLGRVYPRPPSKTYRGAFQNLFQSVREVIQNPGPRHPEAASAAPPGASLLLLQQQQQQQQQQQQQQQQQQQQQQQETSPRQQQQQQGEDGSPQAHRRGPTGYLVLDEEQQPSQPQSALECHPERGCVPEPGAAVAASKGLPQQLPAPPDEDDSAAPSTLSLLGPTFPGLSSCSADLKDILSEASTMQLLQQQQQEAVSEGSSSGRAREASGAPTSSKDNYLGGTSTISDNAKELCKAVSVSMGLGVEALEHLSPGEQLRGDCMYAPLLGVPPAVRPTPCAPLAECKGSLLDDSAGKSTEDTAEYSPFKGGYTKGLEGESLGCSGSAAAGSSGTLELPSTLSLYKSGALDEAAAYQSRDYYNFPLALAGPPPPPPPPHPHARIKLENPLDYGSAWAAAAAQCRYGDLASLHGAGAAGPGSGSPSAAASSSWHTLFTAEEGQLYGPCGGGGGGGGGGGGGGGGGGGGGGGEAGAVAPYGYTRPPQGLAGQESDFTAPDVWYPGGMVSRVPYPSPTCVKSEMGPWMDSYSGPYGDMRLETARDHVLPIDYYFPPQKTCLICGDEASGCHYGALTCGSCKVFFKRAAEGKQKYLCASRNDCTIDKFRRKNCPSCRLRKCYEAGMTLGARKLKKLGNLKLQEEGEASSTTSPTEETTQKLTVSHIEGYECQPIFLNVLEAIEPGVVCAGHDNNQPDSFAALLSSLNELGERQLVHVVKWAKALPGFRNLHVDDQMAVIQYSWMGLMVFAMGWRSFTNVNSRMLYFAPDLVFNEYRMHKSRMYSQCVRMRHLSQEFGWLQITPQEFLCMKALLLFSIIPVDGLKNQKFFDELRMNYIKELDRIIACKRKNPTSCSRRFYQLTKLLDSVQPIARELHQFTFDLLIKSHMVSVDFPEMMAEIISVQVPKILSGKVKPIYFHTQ

AR = target: T2, AR (Rattus norvegicus, UniProt P15207); experiment: PolarScreen AR Competitor binding affinity assay
T2 construct: purchased Invitrogen
T2 sequence (P15207 651-902 limits assumed): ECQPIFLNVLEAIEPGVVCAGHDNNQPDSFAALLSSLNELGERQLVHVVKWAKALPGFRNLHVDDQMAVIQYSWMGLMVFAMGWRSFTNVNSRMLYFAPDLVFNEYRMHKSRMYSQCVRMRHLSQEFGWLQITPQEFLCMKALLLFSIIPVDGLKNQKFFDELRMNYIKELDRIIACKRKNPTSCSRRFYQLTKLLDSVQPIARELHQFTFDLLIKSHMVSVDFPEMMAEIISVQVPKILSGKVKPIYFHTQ

TRα and TRβ [1] = experiment: GH3.TRE-Luc TR reporter assay, antagonist setup (0.25 nM T3); format: cell-based, rat
firefly luciferase = target: T3, firefly luciferase (Photinus pyralis, UniProt P08659); experiment: Luciferase inhibition assay in GH3.TRE-Luc cell lysates; format: biochemical; settings: cell lysate; for inhibition at 50 µM: read-out: inhibition of firefly luciferase luminescence signal
T3 construct: Only implied by 'CP' in the vector name, from my own knowledge; expressed in transfected cells; host or cells: GH3.TRE-Luc cells induced with 0.25 nM T3, lysate
T3 sequence (P08659 whole entry): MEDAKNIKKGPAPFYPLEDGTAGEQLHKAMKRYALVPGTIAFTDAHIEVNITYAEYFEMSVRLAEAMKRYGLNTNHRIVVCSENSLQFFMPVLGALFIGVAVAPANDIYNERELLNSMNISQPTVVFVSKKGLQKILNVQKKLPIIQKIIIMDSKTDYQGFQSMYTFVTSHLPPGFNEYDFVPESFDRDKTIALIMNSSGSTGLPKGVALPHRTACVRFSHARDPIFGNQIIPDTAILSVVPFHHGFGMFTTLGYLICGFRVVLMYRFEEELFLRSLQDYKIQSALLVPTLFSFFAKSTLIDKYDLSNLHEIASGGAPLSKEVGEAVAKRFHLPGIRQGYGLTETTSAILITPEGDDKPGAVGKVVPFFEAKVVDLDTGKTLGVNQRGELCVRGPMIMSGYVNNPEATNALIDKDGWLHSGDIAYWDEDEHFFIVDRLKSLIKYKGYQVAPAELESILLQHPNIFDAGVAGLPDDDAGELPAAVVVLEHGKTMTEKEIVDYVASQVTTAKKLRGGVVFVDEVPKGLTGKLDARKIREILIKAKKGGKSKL
Protocol: Serial dilutions for each treatment were prepared in the cell lysate and incubated at room temperature for 30 min.

stickleback AR = system: stickleback AR; set-up: method as in Lange et al. 2015; settings: at 10 μM; ref Lange et al. 2015; cited from earlier work
Androgen receptor [2] = settings: ref Rostkowski et al. 2011, cited from earlier work
Androgen receptor [3] = settings: ref Rostkowski et al. 2011, cited from earlier work; remark: listed apart in the source
GR [4] = target: T4, GR (Homo sapiens, UniProt P04150); experiment: PolarScreen GR Competitor binding affinity assay; set-up: purchased Invitrogen; settings: for binding affinity assay on isolated GR, result: in words, tested up to 10 μM
T4 sequence (P04150 1-777): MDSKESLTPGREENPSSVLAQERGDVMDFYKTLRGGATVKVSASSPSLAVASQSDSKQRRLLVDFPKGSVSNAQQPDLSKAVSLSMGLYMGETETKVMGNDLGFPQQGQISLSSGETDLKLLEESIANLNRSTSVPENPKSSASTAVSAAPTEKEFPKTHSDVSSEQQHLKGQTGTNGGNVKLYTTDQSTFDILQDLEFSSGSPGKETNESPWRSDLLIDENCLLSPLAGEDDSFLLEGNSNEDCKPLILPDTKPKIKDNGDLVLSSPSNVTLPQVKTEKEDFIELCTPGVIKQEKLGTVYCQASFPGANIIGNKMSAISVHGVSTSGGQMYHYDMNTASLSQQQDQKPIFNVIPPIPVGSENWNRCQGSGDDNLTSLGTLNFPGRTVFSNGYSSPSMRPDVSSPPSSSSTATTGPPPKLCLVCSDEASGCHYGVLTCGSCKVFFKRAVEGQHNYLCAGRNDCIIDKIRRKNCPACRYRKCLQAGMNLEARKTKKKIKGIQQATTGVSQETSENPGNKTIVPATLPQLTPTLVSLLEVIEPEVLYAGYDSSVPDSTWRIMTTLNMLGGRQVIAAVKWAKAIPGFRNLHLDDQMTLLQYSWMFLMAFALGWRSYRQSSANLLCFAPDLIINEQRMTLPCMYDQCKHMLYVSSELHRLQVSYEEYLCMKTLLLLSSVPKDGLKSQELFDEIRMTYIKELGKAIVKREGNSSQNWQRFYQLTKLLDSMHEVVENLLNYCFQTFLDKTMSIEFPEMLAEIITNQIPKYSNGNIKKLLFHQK

hERα-HeLa-9903 cells = experiment: Cell viability (resazurin) in hERα-HeLa-9903 cells; settings: hERα-HeLa-9903, ERα agonist dose-response
GR [5] = target: T4, GR; experiment: MDA-kb2 GR reporter assay, antagonist setup (500 nM HC); format: cell-based; set-up: constitutively expressed high levels of functional GR and AR; host or cells: MDA-kb2
AroB transcription = settings: 1 nM E2 alone; zebrafish embryos; ref Chung et al. 2011; cited from earlier work
Estrogen receptor-α = settings: YES/YAS tests; ref Westlund and Yargeau 2017; cited from earlier work
human (h) ERα = target: T5, human (h) ERα (Homo sapiens, UniProt P03372); experiment: hERα-HeLa-9903 transactivation assay, agonist setup; format: cell-based; set-up: host or cells: hERα-HeLa-9903 (HeLa derived); settings: for higher ERα RTA than vehicle control: vs 0.1% DMSO
T5 sequence (P03372 1-595): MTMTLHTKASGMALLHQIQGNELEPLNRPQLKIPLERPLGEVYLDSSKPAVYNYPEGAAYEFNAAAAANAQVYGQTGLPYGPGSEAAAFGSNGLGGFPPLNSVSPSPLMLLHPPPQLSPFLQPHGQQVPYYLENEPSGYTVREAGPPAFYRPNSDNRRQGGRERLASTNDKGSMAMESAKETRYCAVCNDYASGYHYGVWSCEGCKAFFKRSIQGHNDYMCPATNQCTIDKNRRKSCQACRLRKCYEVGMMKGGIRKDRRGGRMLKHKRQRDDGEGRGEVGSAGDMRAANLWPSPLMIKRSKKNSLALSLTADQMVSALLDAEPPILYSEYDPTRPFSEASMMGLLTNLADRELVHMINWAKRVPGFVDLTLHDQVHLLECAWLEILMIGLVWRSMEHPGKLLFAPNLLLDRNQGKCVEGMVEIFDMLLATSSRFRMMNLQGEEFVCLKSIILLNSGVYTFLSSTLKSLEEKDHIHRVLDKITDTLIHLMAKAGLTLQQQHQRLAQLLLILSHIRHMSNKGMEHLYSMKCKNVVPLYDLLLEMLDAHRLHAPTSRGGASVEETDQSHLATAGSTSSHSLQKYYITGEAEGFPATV

TRα and TRβ [6] = experiment: GH3.TRE-Luc TR reporter assay, agonist setup; format: cell-based, rat; settings: vs 0.1% DMSO
AR-EcoScreen cells = experiment: Cell viability (resazurin) in AR-EcoScreen cells; settings: agonist assay
Glucocorticoid receptor = settings: MDA-kb2 at 5 μM; ref Kolšek et al. 2014a; cited from earlier work
Thyroid receptor = settings: ZFL cell line; ref Zhou et al. 2017; cited from earlier work
[7] = ref Sandborgh-Englund et al. 2006, cited from earlier work
GR [8] = target: T4, GR; experiment: MDA-kb2 GR reporter assay, agonist setup (with FLU); format: cell-based; set-up: constitutively expressed high levels of functional GR and AR; host or cells: MDA-kb2; settings: 10 μM; vs 0.1% DMSO with 5 μM FLU
[9] = 0.25 nM T3; read-out: TR antagonist IC50

Oc1ccc(Cl)cc1Cc1ccccc1 [Chlorophene, 2-Benzyl-4-chlorophenol]
lower AR RTA than spike-in control (human (h)AR; 10 μM, vs 0.1% DMSO with 500 pM DHT): > 90%
IC50 (human (h)AR; AR antagonist IC50, AR-EcoScreen, 500 pM DHT): 2360 nM and 2400 nM
AR antagonist activity, call (human (h)AR; AR-EcoScreen): Antagonist
EC50 (AR): 2160 nM
binding affinity assay on isolated AR, result (AR; in words, tested up to 10 μM): positive
TR antagonist activity, call (TRα and TRβ [1]; GH3.TRE-Luc): Antagonist
concentration with TR antagonist activity (TRα and TRβ [1]; GH3.TRE-Luc): 10 µM
inhibition at 50 µM (firefly luciferase): ~12%
effect on stickleback AR (stickleback AR): Antagonist at 10μM in a stickleback AR reporter assay ([Lange et al. 2015])
IC50 (Androgen receptor [2]; antiandrogenic, read-out: anti-YAS IC50): 540 nM
effect on AR, yeast based assay (Androgen receptor [2]): Antagonist ([Rostkowski et al. 2011])
IC50 (Androgen receptor [3]; antiandrogenic, read-out: AR-CALUX IC50): 800 nM
effect on AR in AR-CALUX assay (Androgen receptor [3]): Antagonist in AR-CALUX assay ([Rostkowski et al. 2011])
binding affinity assay on isolated GR, result (GR [4]): positive
EC50 (GR [4]; read-out: binding to isolated GR, EC50): 10500 nM
highest tested concentration as limited by precipitation and cytotoxicity (hERα-HeLa-9903 cells): 50 µM
GR activity in MDA-kb2 cell line, call (GR [5]; 10 μM): Negative

C[C@]12CC[C@@H]3c4ccc(O)cc4CC[C@H]3[C@@H]1CC[C@@H]2O [E2, 17β-estradiol, reference compound]
increase in AroB transcription (AroB transcription): 8 fold

CC(C)(c1ccc(O)cc1)c1ccc(O)cc1 [BPA, bisphenol A, reference compound]
IC50 (TRα and TRβ [1]; read-out: TR antagonist IC50; 0.25 nM T3): 41900 nM

CC(C)(C)C(=O)C(Oc1ccc(Cl)cc1)n1ccnc1 (stereo not drawn) [Climbazole, 1-(4-Chlorophenoxy)-1-(imidazol-1-yl)-3,3-dimethylbutan-2-one]
TR antagonist activity, call (TRα and TRβ [1]; GH3.TRE-Luc): Antagonist
concentration with TR antagonist activity (TRα and TRβ [1]; GH3.TRE-Luc): 10 µM
inhibition at 50 µM (firefly luciferase): ~12%
effect on ER, yeast based assay (Estrogen receptor-α): No effect ([Westlund and Yargeau 2017])
higher ERα RTA than vehicle control (human (h) ERα; 10 μM): > 30.0% and 36.6%
higher ERα RTA than vehicle control (human (h) ERα; 100 μM): 94%
ERα agonist activity, call (human (h) ERα; hERα-HeLa-9903): Agonist
concentration with ERα agonist activity (human (h) ERα; hERα-HeLa-9903): 10 to 100 µM

Oc1c(Br)cc(Cl)cc1Cc1cc(Cl)cc(Br)c1O [Bromochlorophene, 2,2’-methylenebis(6-bromo-4-chlorophenol)]
baseline TR-mediated transcriptional activity lower than vehicle control (agonist setup) (TRα and TRβ [6]; 1 μM): > 50%
baseline TR-mediated transcriptional activity lower than vehicle control (agonist setup) (TRα and TRβ [6]; 10 μM): > 50%
IC50 (TRα and TRβ [1]; [9]): 500 nM and 510 nM
lower TR RTA than spike-in control (TRα and TRβ [1]; 10 μM; vs 0.1% DMSO with 0.25 nM T3): 92.9%
TR antagonist activity, call (TRα and TRβ [1]; GH3.TRE-Luc): Antagonist
inhibition of firefly luciferase luminescence signal (firefly luciferase; 50 μM): 26.1%
highest noncytotoxic concentration (AR-EcoScreen cells): 2.5 µM

Oc1cc(Cl)ccc1Oc1ccc(Cl)cc1Cl [Triclosan, 5-Chloro-2-(2,4-dichlorophenoxy) phenol]
baseline TR-mediated transcriptional activity lower than vehicle control (agonist setup) (TRα and TRβ [6]; 10 μM): > 50%
IC50 (TRα and TRβ [1]; [9]): 3600 nM and 3610 nM
lower TR RTA than spike-in control (TRα and TRβ [1]; 5 μM; vs 0.1% DMSO with 0.25 nM T3): 71.9%
TR antagonist activity, call (TRα and TRβ [1]; GH3.TRE-Luc): Antagonist
concentration with TR antagonist activity (TRα and TRβ [1]; GH3.TRE-Luc): 5 µM
inhibition at 50 µM (firefly luciferase): ~12%
effect on GR (Glucocorticoid receptor): No effect in MDA-kb2 at 5μM ([Kolšek et al. 2014a])
effect on TR (Thyroid receptor): No effect in ZFL cell line ([Zhou et al. 2017])
effect on stickleback AR (stickleback AR): Antagonist at 10μM in stickleback AR reporter assay ([Lange et al. 2015])
peak plasma concentration ([7]; 10 healthy volunteers, single dose of mouthwash): 0.5 to 1.2 µM
preexperiment median plasma baseline concentration ([7]; 10 healthy volunteers): 5.5 nM
time of plasma peak after exposure [7]: up to 3 h
EC50 (GR [4]): 27300 nM
binding affinity assay on isolated GR, result (GR [4]): positive
lower GR RTA than vehicle control (agonist assay) (GR [8]): 53.6%
lower GR RTA than spike-in control (GR [5]; 10 μM, vs 0.1% DMSO with 500 nM HC): 53.2%
GR antagonist activity, call (GR [5]; MDA-kb2): Antagonist

Source: PMC7567334 (Environmental Health Perspectives, 2020)
